{"source": "patent US7192607B2", "about": "“Formulations for the prevention or the treatment of diseases affecting mucosae or skin, or for pregnancy prevention, and an applicator for the delivery of topical formulations into mucosal cavities” (Infectio Recherche Inc, priority 2002, dated 2007)", "key": {"[1]": {"tested_on": "HSV-1 (strain F)", "assay": "Infectivity of HSV-1 (strain F) to Vero cells after treatment with SLS or DS (plaque forming units)", "type": "cell-based, Herpes simplex virus type-1", "conditions": "for IC50: Human alphaherpesvirus 1, Vero, FIG. 1, read-out: concentration giving a loss of 50% of the viral infectivity", "description": "(§1) The effect of pretreating different strains of herpes viruses with SLS or DS on their viral infectivities to susceptible cells has been evaluated. In brief, cells were seeded in 24 well-plates (Costar, Montreal, QC, Canada). Prior to infection, the virus was either suspended in culture medium or phosphate buffered saline (PBS), or incubated with different concentrations of SLS in PBS for 1 h at 37° C. At confluency, cells were incubated with viral suspensions by centrifuging the plates (750× g for 45 min at 20° C.) to allow virus adsorption. Virus was removed and cell sheets were then overlaid with 0.5 ml of 0.6% agarose Seaplaque (Marine Colloids, Rockland, Md.) prepared in appropriate culture medium. The plates were incubated for 2 days at 37° C. Cells were then fixed with 10% formaldehyde in PBS for 20 min, washed with deionized water and stained with 0.05% methylene blue. Viral infectivity was evaluated via the determination of Plaque Forming Units (PFU).\n(§2) HSV-1 (strain F) infectivity was reduced to 21% when viral particles were pretreated with 25 μM SLS. The infectivities of all HSV-2 strains were between 50 to 70% following preincubation with 25 μM SLS. A complete loss of the infectivity of all strains tested were obtained following pretreatment of the viruses with 50 μM SLS.\nWhen SLS was immediately added to Vero cells following their infection, the loss of viral infectivity was less dramatic compared to that obtained for virus pretreated for 1 h at 37° C. with the same SLS concentrations. […] Similarly, pretreatment of the HSV-2 (strain 333) with SLS also influenced the infectivity of this strain (data not shown). On the other hand, DS reduces the infectivity of the virus independent of whether the virus was pretreated with DS."}, "[2]": {"tested_on": "HSV-2 (6)", "assay": "Infectivity of HSV-2 (6), acyclovir-resistant strain, pretreated with SLS on Vero cells (PFU)", "type": "cell-based, Herpes simplex virus type-2", "description": "as §1"}, "[3]": {"tested_on": "various HSV-1 and HSV-2 strains", "assay": "Infectivity of HSV strains pretreated with SLS on Vero cells, text summary across strains", "type": "cell-based, Herpes simplex virus", "conditions": "pretreatment of the viruses with 50 μM SLS", "description": "as §1, §2"}, "[4]": {"tested_on": "HSV-1 (strain F)", "assay": "Murine cutaneous infection model, HSV-1 pretreated with SLS or DS", "type": "in vivo, hairless mice (SKH1)", "description": "The effect of pretreating HSV-1 (strain F) with SLS on viral infectivity has also been evaluated in a murine cutaneous infection model. Female hairless mice (SKH1; Charles River Breeding Laboratories Inc., St-Constant, QC, Canada), 5–6 weeks old were used throughout this study. […] Mice were anesthetized by intraperitoneal injection of a mixture containing 70 mg/kg ketamine hydrochloride (Rogarsetic* injection USP; Rogar/STB Inc. Montreal, QC, Canada) and 11.5 mg/kg xylazine (Rompun®; Miles Canada Inc., Etobicoke, ON, Canada). The virus was inoculated on the lateral side of the body in the left lumbar skin area. The skin was scratched six times in a crossed-hatched pattern with a 27-gauge needle held vertically. Viral suspension (50 μl) was deposited onto the scarified area and rubbed for 10 to 15 see with a cotton tipped applicator saturated with EMEM+2% FBS or SLS or DS solutions. The scarified area was protected with a corn cushion which was maintained on the mice body with surgical tape. The porous inner wall of the aperture of the corn cushion was impermeabilized with tissue adhesive prior to use to prevent absorption of the drug. The aperture of the corn cushion was also closed with surgical tape. Mice were then returned to their cages and observed twice daily.\nIn infected untreated mice, no pathological signs of cutaneous infection were visible during the first four days following infection and only the scarified area remained appearent. On day 5, herpetic skin lesions began to appear in some mice in the form of small vesicles distant from the inoculation site. On day 6, almost all untreated mice developed herpetic skin lesions in the form of a 4–5 mm wide band extending from the spine to the ventral midline of the infected dermatome similar to zoster-like infections. Maximal mean lesion score was observed on day 8. Mean lesion score decreased thereafter from day 11 to day 15 because of spontaneous regression of cutaneous lesions in some mice. […] Of prime importance, all mice infected with the virus pretreated with 100 μM SLS survived the infection (data not shown)."}, "[5]": {"tested_on": "HSV-2 (strain 333)", "assay": "Murine intravaginal infection model, gel formulations applied prior to infection", "type": "in vivo, Balb/c mice", "conditions": "2.5% SLS alone intravaginally 5 min prior to infection", "description": "The efficacy of gel formulations to prevent the genital transmission of HSV-2 has been evaluated in a murine intravaginal infection model. In brief, female Balb/c mice aged 4 weeks were used for this study. To increase susceptibility of mice to herpes, 2.5 mg of progesterone (Depo-Provera) was administered subcutaneously to each mouse 7 days prior to and one day prior to inoculation with HSV-2. Anesthetized mice were inoculated with 5 μl of 2.4×10^7 pfu/ml of HSV-2 (strain 333) after swabbing the vagina with a calcium alginate thin tipped swab. To determine the efficacy of the gel formulations to block herpes infection, 15 μl of the gel was delivered with a pipette tip into the vagina a few minutes prior to the inoculation. The pipette tip was moved in and out four times to simulate stirring action of sexual intercourse while being cautious not to cause any bleeding."}, "[6]": {"conditions": "virus pretreated with 6.25 μM SLS for 1 hour at 37° C."}, "[7]": {"conditions": "virus pretreated with 12.5 μM SLS for 1 hour at 37° C."}, "[8]": {"conditions": "virus pretreated with 50 μM SLS for 1 hour at 37° C."}}, "note": "Where “and” joins values, the source holds several entries; their conditions need not be identical. Identical values can stand only once. Like-named read-outs stand apart in the source and are kept apart here.", "data": [{"smiles": "CCCCCCCCCCCCOS(=O)(=O)[O-].[Na+]", "note": "[SLS, Sodium lauryl sulfate]", "values": [{"measurement": "inhibition of viral infectivity", "setting": "[1]; 100 μM SLS without pretreatment", "value": "not complete"}, {"measurement": "IC50", "setting": "[1]; virus not pretreated (added without pretreatment)", "value": 75, "unit": "µM"}, {"measurement": "IC50", "setting": "[1]; virus pretreated for 1 h at 37° C.", "value": 20, "unit": "µM"}, {"measurement": "inhibition of viral infectivity", "setting": "[1]; preincubation of virus with 50 μM SLS", "value": "complete inhibition"}, {"measurement": "PFU (% of control) for HSV-1 (F)", "setting": "[1]; [6]", "value": "101.1 ± 7.0 % of control"}, {"measurement": "PFU (% of control) for HSV-1 (F)", "setting": "[1]; [7]", "value": "79.2 ± 36.4 % of control"}, {"measurement": "PFU (% of control) for HSV-1 (F)", "setting": "[1]; virus pretreated with 25 μM SLS for 1 hour at 37° C., sulfate", "value": "21 % of control and 21.2 ± 18.0 % of control"}, {"measurement": "PFU (% of control) for HSV-1 (F)", "setting": "[1]; [8]", "value": "0 % of control"}, {"measurement": "PFU (% of control) for HSV-2 (6)", "setting": "[2]; [6]", "value": "105.3 ± 12.4 % of control"}, {"measurement": "PFU (% of control) for HSV-2 (6)", "setting": "[2]; [7]", "value": "82.1 ± 40.7 % of control"}, {"measurement": "PFU (% of control) for HSV-2 (6)", "setting": "[2]; virus pretreated with 25 μM SLS for 1 hour at 37° C.", "value": "51.1 ± 30.1 % of control"}, {"measurement": "PFU (% of control) for HSV-2 (6)", "setting": "[2]; [8]", "value": "0 % of control"}, {"measurement": "infectivity of all strains tested", "setting": "[3]", "value": "complete loss"}, {"measurement": "cutaneous lesions", "setting": "[4]; virus pretreated with 100 μM SLS for 1 h at 37° C.", "value": "did not demonstrate any signs of cutaneous lesions"}, {"measurement": "mice that survived the infection", "setting": "[4]; virus pretreated with 100 μM SLS, data not shown", "value": "all"}, {"measurement": "mean lesion score", "setting": "[4]; virus pretreated with 6.25 and 25 μM SLS for 1 h at 37° C.", "value": "did not demonstrate a significant reduction"}, {"measurement": "mice that survived the infection", "setting": "[5]", "value": "all"}, {"measurement": "signs of illness", "setting": "[5]; up to 16 days post-infection", "value": "did not demonstrate any sign of illness"}]}]}
